Several values for one entry are separate records, joined by “and”; a condition that tells them apart may be missing. Equal entries are not always repeated.
Experiments:
mouse KOR, Gαi2 = target: T1, mouse KOR, Gαi2 (Mus musculus, UniProt P33534); assay: TRUPATH BRET G protein assay, Gαi2; type: cell-based
T1 construct: expressed in transfected cells; host or cells: HEK293T (ATCC, CRL-3216), transient

mouse KOR, Gαz = mouse KOR, Gαz (Mus musculus, UniProt P33534); assay: TRUPATH BRET G protein assay, Gαz; type: cell-based
Chain of mouse KOR, Gαz (P33534 whole entry): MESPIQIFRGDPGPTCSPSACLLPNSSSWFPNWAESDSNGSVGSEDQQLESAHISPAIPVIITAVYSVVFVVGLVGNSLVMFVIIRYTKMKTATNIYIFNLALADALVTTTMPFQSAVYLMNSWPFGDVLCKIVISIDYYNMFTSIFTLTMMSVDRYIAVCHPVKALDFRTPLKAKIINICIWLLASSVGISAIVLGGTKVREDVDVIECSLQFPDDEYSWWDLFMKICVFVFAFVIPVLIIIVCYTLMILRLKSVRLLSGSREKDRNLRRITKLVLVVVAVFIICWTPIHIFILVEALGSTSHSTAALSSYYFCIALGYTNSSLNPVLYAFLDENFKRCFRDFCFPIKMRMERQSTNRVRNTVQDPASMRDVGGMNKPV
Chain of mouse KOR, Gαz (P19086 2-355 partner): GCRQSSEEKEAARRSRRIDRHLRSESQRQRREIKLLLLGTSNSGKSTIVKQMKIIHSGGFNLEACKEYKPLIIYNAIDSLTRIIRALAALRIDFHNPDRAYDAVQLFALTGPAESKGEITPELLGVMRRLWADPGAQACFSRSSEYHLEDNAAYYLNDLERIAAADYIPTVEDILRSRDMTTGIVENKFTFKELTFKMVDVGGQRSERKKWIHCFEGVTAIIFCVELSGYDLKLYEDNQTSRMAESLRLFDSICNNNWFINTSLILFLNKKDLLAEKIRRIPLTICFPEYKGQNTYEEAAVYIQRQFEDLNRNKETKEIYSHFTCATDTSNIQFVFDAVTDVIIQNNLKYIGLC

mouse KOR, Gαi1 = mouse KOR, Gαi1 (Mus musculus, UniProt P33534); assay: TRUPATH BRET G protein assay, Gαi1; type: cell-based; details: TRUPATH; read-out: Emax (%) Gαi1
Chain of mouse KOR, Gαi1 (P33534 whole entry): as the sequence (P33534 whole entry) above
Chain of mouse KOR, Gαi1 (P63096 2-354 partner): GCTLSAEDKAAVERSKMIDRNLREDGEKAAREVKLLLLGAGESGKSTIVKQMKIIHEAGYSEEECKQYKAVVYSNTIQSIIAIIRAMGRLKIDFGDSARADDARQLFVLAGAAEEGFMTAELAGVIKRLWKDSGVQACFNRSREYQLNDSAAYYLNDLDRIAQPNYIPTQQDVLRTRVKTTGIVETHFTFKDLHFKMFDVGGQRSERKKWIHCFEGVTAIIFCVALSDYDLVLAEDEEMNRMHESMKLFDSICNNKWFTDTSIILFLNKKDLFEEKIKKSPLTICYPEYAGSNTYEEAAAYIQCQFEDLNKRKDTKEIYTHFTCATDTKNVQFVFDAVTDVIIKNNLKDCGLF

human KOR = human KOR (Homo sapiens, UniProt P41145); assay: cell-based; parameters: expressed in transfected cells; host or cells: HEK293, transient
Chain of human KOR (P41145 whole entry): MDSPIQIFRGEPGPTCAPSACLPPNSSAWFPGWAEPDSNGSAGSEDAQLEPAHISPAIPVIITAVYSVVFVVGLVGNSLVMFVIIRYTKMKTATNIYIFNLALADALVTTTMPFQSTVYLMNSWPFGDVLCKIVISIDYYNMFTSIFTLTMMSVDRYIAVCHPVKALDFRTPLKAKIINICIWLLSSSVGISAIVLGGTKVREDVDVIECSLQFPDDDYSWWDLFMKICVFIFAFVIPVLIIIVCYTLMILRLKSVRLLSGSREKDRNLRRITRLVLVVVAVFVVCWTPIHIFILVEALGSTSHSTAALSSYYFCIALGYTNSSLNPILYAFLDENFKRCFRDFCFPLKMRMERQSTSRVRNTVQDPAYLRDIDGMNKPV

mouse KOR, Gαi3 = mouse KOR, Gαi3 (Mus musculus, UniProt P33534); assay: TRUPATH BRET G protein assay, Gαi3; type: cell-based; details: TRUPATH; read-out: Emax (%) Gαi3
Chain of mouse KOR, Gαi3 (P33534 whole entry): as the sequence (P33534 whole entry) above
Chain of mouse KOR, Gαi3 (P08754 2-354 partner): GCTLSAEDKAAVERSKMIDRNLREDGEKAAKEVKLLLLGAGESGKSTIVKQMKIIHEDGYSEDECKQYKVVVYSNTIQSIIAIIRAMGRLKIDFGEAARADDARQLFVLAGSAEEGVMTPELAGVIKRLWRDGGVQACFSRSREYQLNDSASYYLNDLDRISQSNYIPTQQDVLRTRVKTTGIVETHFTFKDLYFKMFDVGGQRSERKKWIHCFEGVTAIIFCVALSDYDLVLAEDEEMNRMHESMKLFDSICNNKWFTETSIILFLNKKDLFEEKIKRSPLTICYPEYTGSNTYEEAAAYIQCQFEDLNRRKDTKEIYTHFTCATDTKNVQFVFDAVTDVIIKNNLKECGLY

mouse KOR, GαoA = mouse KOR, GαoA (Mus musculus, UniProt P33534); assay: TRUPATH BRET G protein assay, GαoA; type: cell-based; details: TRUPATH; read-out: Emax (%) GαoA
Chain of mouse KOR, GαoA (P33534 whole entry): as the sequence (P33534 whole entry) above
Chain of mouse KOR, GαoA (P09471 2-354 partner): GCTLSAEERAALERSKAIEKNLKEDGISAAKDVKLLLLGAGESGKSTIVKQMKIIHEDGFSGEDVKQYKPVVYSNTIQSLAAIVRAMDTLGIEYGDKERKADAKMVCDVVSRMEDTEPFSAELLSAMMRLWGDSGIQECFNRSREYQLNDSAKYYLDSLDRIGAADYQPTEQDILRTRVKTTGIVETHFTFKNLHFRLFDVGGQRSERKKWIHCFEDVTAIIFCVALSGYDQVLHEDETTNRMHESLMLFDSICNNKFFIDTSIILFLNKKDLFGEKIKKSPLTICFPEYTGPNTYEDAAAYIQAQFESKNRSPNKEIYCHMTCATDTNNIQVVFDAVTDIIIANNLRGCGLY

mouse KOR, GαoB = mouse KOR, GαoB (Mus musculus, UniProt P33534); assay: TRUPATH BRET G protein assay, GαoB; type: cell-based; details: TRUPATH; read-out: Emax (%) GαoB
Chain of mouse KOR, GαoB (P33534 whole entry): as the sequence (P33534 whole entry) above
Chain of mouse KOR, GαoB (P09471 2-354 partner): as the sequence (P09471 2-354 partner) above

mouse KOR, Gαgustducin = mouse KOR, Gαgustducin (Mus musculus, UniProt P33534); assay: TRUPATH BRET G protein assay, Gαgustducin; type: cell-based; details: read-out: Emax (%) Gαgustducin
Chain of mouse KOR, Gαgustducin (P33534 whole entry): as the sequence (P33534 whole entry) above
Chain of mouse KOR, Gαgustducin (A8MTJ3 2-354 partner): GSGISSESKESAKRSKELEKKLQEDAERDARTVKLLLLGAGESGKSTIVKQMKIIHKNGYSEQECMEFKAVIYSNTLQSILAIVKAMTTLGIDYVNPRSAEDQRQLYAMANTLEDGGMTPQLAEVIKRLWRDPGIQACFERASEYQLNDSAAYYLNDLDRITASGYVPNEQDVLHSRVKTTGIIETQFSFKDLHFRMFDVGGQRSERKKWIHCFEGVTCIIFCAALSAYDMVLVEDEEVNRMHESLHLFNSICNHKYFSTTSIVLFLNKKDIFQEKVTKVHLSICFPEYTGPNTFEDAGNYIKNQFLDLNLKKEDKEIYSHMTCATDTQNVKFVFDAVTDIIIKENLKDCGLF

T1 sequence (P33534 whole entry): as the sequence (P33534 whole entry) above

O=C(NC1C=CC2C3Cc4ccc(O)c5c4C2(CCN3CC2CC2)C1O5)c1cccc(I)c1 (stereo not drawn) [MP1104]
potency (log EC50) Gαi2 (mouse KOR, Gαi2; Fig. 3i spider plot): -9.607
Gαi2, normalized response (single replicate values) (mouse KOR, Gαi2; Log [ligand] (M) -5): 68.8651 and 55.859 and 33.3938 and 78.3335 and 54.4028 and 51.6416 and 70.9702 and 67.6827
Gαi2, normalized response (single replicate values) (mouse KOR, Gαi2; Log [ligand] (M) -6): 66.5004 and 68.8651 and 52.3118 and 47.96 and 45.1988 and 59.9253 and 82.9355 and 80.6889
Gαi2, normalized response (single replicate values) (mouse KOR, Gαi2; Log [ligand] (M) -7): 70.0475 and 61.7708 and 39.3057 and 73.7314 and 51.6416 and 42.4375 and 78.3335 and 51.1294
Gαi2, normalized response (single replicate values) (mouse KOR, Gαi2; Log [ligand] (M) -8): 83.0537 and 70.0475 and 49.9471 and 81.0947 and 82.9355 and 89.3784 and 101.344 and 61.7708
Gαi2, normalized response (single replicate values) (mouse KOR, Gαi2; Log [ligand] (M) -9): 49.9471 and 40.488 and 71.2299 and 59.0049 and 80.1743 and 78.3335 and 46.1192 and 33.3938
Gαi2, normalized response (single replicate values) (mouse KOR, Gαi2; Log [ligand] (M) -10): 20.3876 and 60.5885 and 12.111 and 42.4375 and 46.1192 and 22.1885 and 25.8702 and 19.2052
Gαi2, normalized response (single replicate values) (mouse KOR, Gαi2; Log [ligand] (M) -11): -28.0899 and -9.172 and -25.7252 and 25.8702 and -9.105 and 27.711 and -46.8421 and 9.7462
Gαi2, normalized response (single replicate values) (mouse KOR, Gαi2; Log [ligand] (M) -12): 21.57 and -2.078 and 28.6643 and 3.78 and 2.86 and 9.303 (2×) and 6.199
Emax (mouse KOR, Gαi2; TRUPATH): 65 ± 6%
Gαi2 (Figure 3j) (mouse KOR, Gαi2; source data of Figure 3j, U50,488 about 100): 64.9839
highest potency (mouse KOR, Gαz; Gαz subtype): picomolar range
Emax (mouse KOR, Gαz; TRUPATH): 101 ± 3%
Emax (mouse KOR, Gαi1): 100 ± 4%
potency (log EC50) β-arrestin-2 (human KOR): -8.493
β-arrestin-2 (Figure 3j) (human KOR): 91
Emax (human KOR; HEK293, read-out: Emax β-arrestin-1 recruitment): 91 ± 8%
Emax (mouse KOR, Gαi3): 85 ± 3%
Emax (mouse KOR, GαoA): 87 ± 7%
Emax (mouse KOR, GαoB): 101 ± 8%
Emax (mouse KOR, Gαgustducin): 95 ± 5%

Source: publication PMC10698194 (Nature Communications, 2023)
